Columns and labels:
[1] = Antioxidant activity assessed as inhibition of ABTS free radical; format: functional; parameters: concentration or dose not given beside the values; conditions: dose or concentration not given here
[2] = Cytotoxicity against Mus musculus (mouse) EAC cells assessed as dead cell at ED25 ug/cm'3 after 2 hr by trypan blue assay; format: functional, Ehrlich
[3] = Cytotoxicity against Mus musculus (mouse) EAC cells assessed as dead cell at ED100 ug/cm'3 after 2 hr by trypan blue assay; format: functional, Ehrlich
[4] = Cytotoxicity against Mus musculus (mouse) EAC cells assessed as dead cell at ED50 ug/cm'3 after 2 hr by trypan blue assay; format: functional, Ehrlich

Structure (SMILES)	inhibition [1]	Activity [2]	Activity [3]	Activity [4]
CC(=O)c1cc2ccccc2oc1=O	63.6%	–	–	–
N#C/C(=C1/SC=C(c2cc3ccccc3oc2=O)N1c1ccccc1)c1nc2ccccc2s1	4.15%	1.5%	5.7%	3%
N=c1oc2ccccc2cc1C(=O)Nc1nc(-c2cc3ccccc3oc2=O)cs1	61.4%	1.3%	4.9%	2.1%
O=C1O[C@H]([C@@H](O)CO)C(O)=C1O	84%	–	–	–
Nc1c(C(=O)c2cc3ccccc3oc2=O)sc(Nc2ccccc2)c1-c1nc2ccccc2[nH]1	0.19%	1.4%	5.6%	2.6%
N#C/C(C(=O)Nc1nc(-c2cc3ccccc3oc2=O)cs1)=C1/SC(=O)CN1c1ccccc1	28.9%	1.6%	7%	3.1%
Nc1c(C(=O)c2cc3ccccc3oc2=O)sc(S)c1-c1nc2ccccc2s1	75.6%	–	–	–
Nc1c(C(=O)c2cc3ccccc3oc2=O)sc(Nc2ccccc2)c1C(=O)Nc1nc(-c2cc3ccccc3oc2=O)cs1	35.4%	1.7%	7.1%	3%
Nc1nc(-c2cc3ccccc3oc2=O)cs1	74.3%	–	–	–
Nc1c(C(=O)c2cc3ccccc3oc2=O)sc(Nc2ccccc2)c1-c1nc2ccccc2s1	5.94%	1.6%	5.7%	2.9%
N#C/C(C(=O)N1NC(=O)C2C3c4ccccc4C(c4ccccc43)C2C1=O)=C1/SC=C(c2cc3ccccc3oc2=O)N1c1ccccc1 (stereo not drawn)	5.74%	1.1%	5.4%	2.6%
N#CCC(=O)Nc1nc(-c2cc3ccccc3oc2=O)cs1	70.3%	1.8%	8%	3.8%
N#C/C(C(=O)Nc1nc(-c2cc3ccccc3oc2=O)cs1)=C(\Nc1ccccc1)SCC(=O)c1cc2ccccc2oc1=O	23.8%	1.5%	6.8%	3.2%
O=C(CBr)c1cc2ccccc2oc1=O	50.2%	–	–	–
Nc1c(C(=O)c2cc3ccccc3oc2=O)sc(Nc2ccccc2)c1C(=O)N1NC(=O)C2C3c4ccccc4C(c4ccccc43)C2C1=O (stereo not drawn)	13.7%	1.6%	6.1%	3%
O=c1[nH]cc(F)c(=O)[nH]1 [FLUOROURACIL]	–	37%	93%	58%

— ChEMBL document CHEMBL3045320, “Synthesis, antitumor and antioxidant evaluation of some new thiazole and thiophene derivatives incorporated coumarin moiety” (2012)
